Experimental findings from PubChem BioAssay AID624258 (Broad Institute, 2012) are described below.

SMILES strings stand for the structures. The source made the active and inactive calls. How the calls were made is not given here.

In this assay the test system is S. cerevisiae SKN7-toxicity growth rescue, plate reader. As to the kind of experiment: SKN7 mediated toxicity in Saccharomyces cerevisiae, growth rescue counterscreen, dose confirmation (AID 624258;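 further: growth read after three days of incubation at 30 °C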). (In general: The purpose of a counterscreen is to sort out artefacts and off-target activity.)
Consider `Cc1cccc(N2CCN(C(=O)c3c(-c4ccccc4)noc3C)CC2)c1C`, for which the AC40 is 0.414 µM.
The figure for `COc1cc(NC(=O)CSc2ccc(-c3ccccn3)nn2)cc(OC)c1` is 0.894 µM.
Take `O=C1C(=C(I)I)c2ccccc2-c2ccccc21`: the AC40 is 2.07 µM.
With `N#C/C(=C\c1cccc(Oc2ccccc2)c1)C(=O)N1CCOCC1`, the AC40 is 8.47 µM.
Take `O=C(Nc1cccnc1)c1ccc2ccccc2c1O`: the AC40 was 0.908 µM.
The figure for `C[C@@]12C(=O)Nc3ccc(F)cc3C(=O)N1[C@H]1c3ccccc3OC[C@@H]1[C@@H]2c1ccccc1` is 11.5 µM; for `Cc1onc(-c2ccccc2)c1C(=O)NC(=S)NNC(=O)c1cc(-c2ccc(F)cc2)n[nH]1` it is 2.1 µM.
The value for `Oc1cc(Nc2ccccc2)cc2cccnc12` was 3.81 µM; that for `Cc1nnc(N/N=C/c2cccc(OCc3ccc(Cl)c(Cl)c3)c2)n1N` was 3.28 µM.
The value for `CC(C)(C)c1cc(-c2nc(N)nc(N)n2)c(O)c(C(C)(C)C)c1` was 1.92 µM; that for `COc1cccc(NC=C2C(=O)OC3(CCCCC3)OC2=O)c1` was 5.08 µM; that for `COc1ccc2cnn(CCOc3cc(C)ccc3C(C)C)c(=O)c2c1OC` was 4.15 µM.
Regarding `Cc1cc(C(=O)N/N=C/c2cc(Br)cc([N+](=O)[O-])c2O)c2ccccc2n1`, the AC40 is 1.27 µM.
The figure for `Cc1ccc(NC2(c3nnnn3-c3c(C)cccc3C)CCCCC2)cc1` is > 19.5 µM (inactive).
The value for `O=C(CSc1ccc(-c2ccccn2)nn1)c1ccccc1` was 1.22 µM; that for `Cc1nn(CCC(N)=S)c2nc(-c3cccs3)cc(C(F)(F)F)c12` was 14.1 µM; that for `O=C(CSc1nc2ccccc2s1)N/N=C/c1cc([N+](=O)[O-])ccc1O` was 3.97 µM.
The value for `COc1ccc(S(=O)(=O)N(C(=O)c2ccncc2)c2ccc(OC(=O)c3ccncc3)cc2)cc1` was 1.88 µM; that for `Cc1cccc(C)c1N=Nc1c(C)cc(O)cc1C` was 1.12 µM.
With `Cc1ccc(NC(=O)CN(C)C(=O)c2cccnc2Nc2cccc(C(F)(F)F)c2)cc1`, the AC40 was 5.69 µM.
The value for `CCc1oc2ccccc2c1C(=O)c1cc(Br)c(O)c(Br)c1` was 0.912 µM; that for `CC1CC(C)CC(C)C(O)C(C#N)=CC=CCC(C2CCCC2C(=O)O)OC(=O)CC(O)C(C)C1` (stereo unspecified) was 10.3 µM.
For `O=C(N[C@@H](Cc1ccccc1)C(=O)CCl)OCc1ccccc1`, the AC40 is 1.14 µM.
The value for `Oc1ccccc1-c1nnc(SCCN2CCOCC2)n1Cc1ccccc1` was 9.94 µM.
The figure for `O=S(=O)(NCC1COc2ccccc2O1)c1ccc2ccccc2c1` (stereo unspecified) is 8.68 µM.
The value for `Cc1ccccc1OCc1nc2ccccc2n1C` was 7.54 µM; that for `Cc1[nH]n(-c2cccc3ccccc23)c(=O)c1/C=N/NC(=O)c1cccc([N+](=O)[O-])c1` was 0.738 µM; that for `CC(C)(C)n1nc(-c2ccc(F)cc2)c2c(N)ncnc21` was 15.4 µM.
In the case of `Cc1cc2oc(=O)cc(-c3ccccc3)c2c(C)c1-c1ccc(CO)cc1`, the AC40 is 4.67 µM.
In the case of `Cc1c(C(=O)NCCSCc2cccc(C(F)(F)F)c2)cnn1-c1ccc(Cl)cc1`, the AC40 was 6.53 µM.
The figure for `O=C1C=C(c2ccccc2)C(=O)N1Nc1ccccc1` is 1.15 µM.
The figure for `CSC1=NC(=O)/C(=C/c2ccc(SC)cc2)S1` is 2.61 µM; for `CC(=O)NC(c1ccc(Cl)cc1Cl)c1ccc2cccnc2c1O` (stereo unspecified) it is 1.38 µM; for `Cc1ccc(-c2cc(-c3ccc(C)cc3)[n+](-c3ccccc3)c(-c3ccc(C)cc3)c2)cc1` it is 4.13 µM.
Take `CCOC(=O)CSC1=NC(=O)/C(=C\c2ccc(Cl)cc2)S1`: the AC40 was 6.09 µM.
In the case of `COC(=O)c1cc(Sc2cccc(Cl)c2Cl)ccn1`, the AC40 is 14.7 µM.
